From ChEMBL document CHEMBL3638502, “Isonicotinamide orexin receptor antagonists” (2013) come the findings set out here.

This experiment has as its target T1, Orexin receptor type 2 (Homo sapiens, UniProt O43614).
T1 sequence (O43614 whole entry): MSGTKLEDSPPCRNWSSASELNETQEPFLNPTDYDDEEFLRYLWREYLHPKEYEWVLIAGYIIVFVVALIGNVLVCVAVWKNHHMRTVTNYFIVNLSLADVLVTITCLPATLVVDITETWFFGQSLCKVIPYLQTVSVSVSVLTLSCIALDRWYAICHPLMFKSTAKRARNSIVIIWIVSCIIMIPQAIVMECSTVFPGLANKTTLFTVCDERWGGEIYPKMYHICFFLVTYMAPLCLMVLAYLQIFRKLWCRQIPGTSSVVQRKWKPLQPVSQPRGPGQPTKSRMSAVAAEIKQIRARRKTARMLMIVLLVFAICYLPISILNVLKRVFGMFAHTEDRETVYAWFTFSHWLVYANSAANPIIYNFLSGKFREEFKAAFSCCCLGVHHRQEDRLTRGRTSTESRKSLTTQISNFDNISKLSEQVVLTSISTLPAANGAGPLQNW
Nature of the experiment: FLIPR Ca2+ Flux Assay: Assay methodology using FLIPR Ca2+ Flux Assay (Okumura et al., Biochem. Biophys. Res. Comm. 280:976-981, 2001). The class given is functional. (In general: Calcium assays in cells follow changes in intracellular calcium, usually with a dye or a luminescent sensor.)

As to `COc1ccc(CNC(=O)c2cc(-c3cncc(C)c3)ncc2-c2ccccc2)nc1OC`, the Ki – broadly, the dissociation constant of the complex between target and ligand, obtained from inhibition or displacement – worked out at 0.72 nM. That is a sub-nanomolar value.
